In patent publication US8283322B2, “Formulations for nonsurgical exogenous crosslink therapy” (Orthopeutics, LP, priority 2008, dated 2012):

Columns and labels:
[1] = tested on: lumbar intervertebral joints (posterior annulus); assay: Indentation testing (stress relaxation, hardness) with compression/flexion fatigue cycling; settings: soaking the calf disc tissue in 0.33% concentration of genipin
From the text: Thirty-three lumbar intervertebral joints were obtained from ten four-month-old calf spines. The intervertebral joints were arbitrarily divided into 3 groups: untreated controls-12 specimens, Genipin treatment 1 (G1)-6 specimens, and Genipin treatment 2 (G2)-13 specimens. The G1 treatment involved 72 hrs of soaking the whole specimen in PBS with a 0.033% concentration of Genipin. Similarly, the G2 treatment involved 72 hrs of soaking whole specimens in PBS with 0.33% concentration of Genipin. 0.33% Genipin in PBS is produced by dilution of 50 ml of 10×. PBS (Phosphate Buffered Saline) with distilled water by a factor of 10 to give 500 ml (500 gm) of PBS and mixing in 1.65 grams of genipin to produce the 0.33% (wt %, gm/gm) solution. […] Some controls were not subjected to soaking prior to fatigue testing. Others were soaked in a saline solution for 72 hrs. Water mass loss experiments were conducted to establish the equivalency of outer annulus hydration between the genipin soaked and 0.9% saline soaked controls. The selection of treatments was randomized by spine and level. […]
Following initial indentation testing, the specimen was loaded repetitively in flexion-compression at 200 N for 3000 cycles at a rate of 0.25 Hz. […] Several statistical measures were calculated to evaluate the significance of the results. […]

[2] = tested on: annulus fibrosus specimens from bovine lumbar intervertebral discs; assay: Tear resistance of annulus fibrosus (radial tear propagation); settings: soaked two days in 0.15M PBS plus 0.33% genipin
From the text: Ten annulus fibrosus circumferentially aligned specimens from bovine lumbar (T12-L5) intervertebral discs were divided into two groups and either soaked two days in a 0.15M PBS or a 0.15M PBS plus 0.33% genipin solution. A custom loading fixture attached to a uniaxial materials testing system was designed to hold an annulus specimen perpendicular to the travel of a metal cylinder placed in a pre-existing radial cut. The cylinder was then pulled radially (perpendicular to lamellae) towards the external layer. Time dependent force and displacement data was acquired simultaneously. Tearing resistance was quantified in two ways: peak force normalized by specimen thickness and tearing energy per area of tear. Differences between groups were analyzed using the Mann-Whitney non-parametric test.

[3] = physchem; format: physicochemical; settings: for half-life: buffer
From the text: In the case of the crosslinking agent genipin (GP), using a quantitative HPLC assay, the inventors have shown that the agent is unstable in aqueous solution. The rate of degradation can be very rapid and is dependent on pH. […] In all cases this instability is not suitable for long term storage of a genipin-containing crosslinking agent at ambient temperature. […] The inventors have also shown that GP is stable as a powder for at least 1 year. These observations have consequences for the manufacture and/or final form of a crosslinking reagent containing GP, i.e., the GP would have to be stored either in powdered form or in a suitable non-aqueous, water-miscible solvent. The solvent could be, but is not limited to, ethanol, methanol, propanol, acetonitrile or dimethyl sulfoxide.

[4] = tested on: homogenized annulus tissue; settings: bovine
Description: (§1) Increasing concentrations of protein crosslinkers were added to homogenized annulus tissue and incubated for either 1 hr (EDC, GP, MG, PA and GA), 2 hrs (TG) or 6 hrs (DT and LT). Crosslinking was quantified by determining the amount of hydroxyproline (HYP) released from the tissue by collagenase digestion.
(§2) Homogenized annulus tissue was treated with sub-saturating concentrations of various crosslinkers at varying pH and incubated for either 1 hr (EDC, GP, MG, PA and GA), 2 hrs (TG) or 6 hrs (LT). Crosslinking was quantified by determining the amount of hydroxyproline (HYP) released from the tissue by collagenase digestion.
(§3) In order to determine the effective concentration range for various crosslinking reagents we incubated samples of annulus tissue in increasing concentrations of either genipin (GP), methylglyoxal (MG), proanthrocyanidin (PA), L-threose (LT), D-threose (DT), dimethylaminopropyl) carbodiimide hydrochloride (EDC) or transglutaminase (TG). Crosslinking efficiency was measured indirectly by monitoring the release of peptides containing hydroxyproline upon subsequent digestion with collagenase. Glutaraldehyde (GA), a commonly used, but highly toxic protein crosslinker was used as a positive control.
(§4) To test this hypothesis, the inventors subjected calf annulus fibrosus tissue to crosslinking with sub-saturating levels of our reagents at varying pH. In order to maintain optimal buffering capacity at each pH, different buffers were selected for each point.

[5] = tested on: homogenized annulus tissue; assay: Crosslinking of annulus tissue quantified by hydroxyproline release upon collagenase digestion
Description: as §1, §2, §3, §4

## COC(=O)C1=CO[C@@H](O)[C@@H]2C(CO)=CC[C@H]12 [Genipin, genipin]
[1]
  reduction in viscoelastic degradation: More than a three-fold reduction
[2]; p=0.047 vs control
  Total energy per area of tear: 40.2 mJ/mm^2
[2]; p=0.076 vs control
  Normalized peak force: 42.7 N/mm
[3]
  degradation in non-aqueous solvents: no GP degradation was detected
  stability as a powder: at least 1 year
[3]; pH 4
  half-life: 214 h
[3]; pH 5
  half-life: 219 h
[3]; pH 6
  half-life: 135 h
[3]; pH 7
  half-life: 60 h
[3]; pH 8
  half-life: 18 h
[3]; pH 9
  half-life: 2.8 h
[4]
  T1/2: 0.167 to 0.3 h
[5]; 100 mM EPPS or 100 mM Tris, GP at pH 9
  effect of buffer (EPPS vs Tris) on crosslinking: more effective in EPPS buffer than in Tris
[5]; Tris buffer pH 8, increasing concentrations of sodium phosphate
  effect of phosphate on crosslinking: dose-dependent enhancement
[5]; optimized pH for crosslinking, Table 5
  pH: 8-9
[5]; saturating crosslinker concentration, Table 5
  [Saturating]: 5 to 10 mM
[5]; sub-saturating crosslinker, pH 4-9 with a different buffer at each pH (FIG. 2, FIG. 3)
  pH dependence of crosslinking: function better in disc tissue at the higher pH levels
